Reference: patent US12048686B2, “Compositions and methods for activating NRF2-dependent gene expression” (The University of Chicago, priority 2018, dated 2024)

Experiments:
[1] = test system: NRF2 target genes NQO1 and HMOX1; assay: Quantitative RT-PCR of NRF2 target genes in IMR32 cells; format: cell-based; settings: MGx 1 mM
Procedure: FIG. 2A-F. Methylglyoxal modifies KEAP1 to form a covalent, high molecular weight dimer and activate NRF2 signaling. (a) Time-course, anti-FLAG Western blot analysis of whole cell lysates from HEK293T cells expressing FLAG-KEAP1 treated with DMSO or CBR-470-1. (b) Western blot monitoring of FLAG-KEAP1 migration in HEK293 T lysates after incubation with central glycolytic metabolites in vitro (1 and 5 mM, left and right for each metabolite). (c) FLAG-KEAP1 (red) and β-actin (green) from HEK293T cells treated with MGx (5 mM) for 8 hr. (d) Relative NQO1 and HMOX1 mRNA levels in IMR32 cells treated with MGx (1 mM) or water control (n=3). (e) LC-MS/MS quantitation of cellular MGx levels in IMR32 cells treated with CBR-470-1 relative to DMSO (n=4). (f) ARE-LUC reporter activity in HEK293T cells with transient shRNA knockdown of GLO1 (n=8). Univariate two-sided t-test (d, f); data are mean±SEM of biologically independent samples.
Quantitative RT-PCR. Cells were collected by trypsinization and subsequent centrifugation at 500 g. […] Quantitative RT-PCR reactions were measured on a Viia 7 Real-Time PCR system (Thermo) using a Clontech SYBR green-based master mix. Reactions were normalized to TUBG1 levels for each biological replicate and relative transcript abundance calculated using the comparative Ct method.

PGK1 = molecular target: T1, PGK1 (Homo sapiens, UniProt P00558); assay: Recombinant PGK1 assay (GAPDH/PGK1 coupled assay, NADH absorbance); format: biochemical; settings: absorbance 340 nm
T1 sequence (P00558 1-417): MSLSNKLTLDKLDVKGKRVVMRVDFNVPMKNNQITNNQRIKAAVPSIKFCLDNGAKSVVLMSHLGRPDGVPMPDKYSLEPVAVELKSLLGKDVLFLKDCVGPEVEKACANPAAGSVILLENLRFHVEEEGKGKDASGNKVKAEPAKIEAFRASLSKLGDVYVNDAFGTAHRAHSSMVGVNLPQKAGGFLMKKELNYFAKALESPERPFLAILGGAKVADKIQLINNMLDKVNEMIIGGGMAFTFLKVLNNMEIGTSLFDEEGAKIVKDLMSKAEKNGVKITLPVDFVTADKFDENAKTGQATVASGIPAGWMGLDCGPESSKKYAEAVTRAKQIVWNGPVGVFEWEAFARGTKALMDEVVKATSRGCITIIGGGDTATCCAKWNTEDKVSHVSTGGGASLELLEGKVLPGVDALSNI
Source text: FIG. 6A-D. CBR-470-1 inhibits PGK1 in vitro and in situ. (a) Schematic of the GAPDH/PGK1 coupled assay. Pre-equilibration of the GAPDH reaction (top left) results in an NAD^+/NADH equilibrium, which upon addition of PGK1 and ADP pulls the reaction to the right producing more NADH. Monitoring NADH absorbance after addition of PGK1 (bottom right) can be used to monitor PGK1 activity in the forward direction (right). […] (c, d) Relative level of central metabolites in IMR32 cells treated with viral knockdown of PGK1 for 72 hours (c) (n=4) and with CBR-470-1 relative DMSO alone for the indicative times (d) (n=3). Each metabolite is normalized to the control condition at each time point. Data shown represent mean±SEM of biologically independent samples.
Recombinant PGK1 assay. PGK1 enzymatic activity in the forward direction was measured with a coupled enzymatic assay^34. Three PGK1 conditions were prepared by dissolving recombinant PGK1 in potassium phosphate buffer (10 mM KH2PO4, 10 mM MgSO4, pH 7.0), and transferring the aliquots of PGK1 solution to the microtubes being treated with same amount of DMSO and indicated concentrations of CBR-470-1. Final concentration of PGK1 is 20 ng/mL and DMSO is 1% for each sample. […] The change in absorbance at 340 nm at room temperature was measured every 20 seconds for 45 minutes, by Tecan Infinite M200 plate reader. […]

IMR32 cells = assay: IMR32 viability with co-treatments (cell titer glo); format: cell-based; settings: IMR32 cells, 48 hrs, combinations of doses with BBGC
Procedure: FIG. 38. PGK1 toxicity can be rescued with metabolites that are involved with GSH biosynthesis and quenching of reactive oxygen species and methylglyoxal. […] IMR32 cells treated for 48 hr in presence of indicated drugs.
PGK1 toxicity can be rescued with metabolites that are involved with GSH biosynthesis and quenching of reactive oxygen species and methylglyoxal.
IMR32 cells were treated for 48 hrs with CBR-470-1 and/or BBGC at combinations of doses in a synergy matrix (FIG. 41). […] Viability measured using cell titer glo assay (Promega). Viability decreased at higher concentrations of CBR-470-1 and BBGC start at 5 uM. […] Sensitivity of cell lines to direct inhibition of GLO1 (which detoxifies MGO) is generally correlated with sensitivity to PGK1 inhibition with CBR-470-1-consistent with MGO buildup playing a role in toxicity.

| SMILES | expression of NRF2 target genes NQO1 and HMOX1 [1] | PGK1-dependent activity and accumulation of NADH (PGK1) | viability in synergy matrix with BBGC (IMR32 cells) |
| --- | --- | --- | --- |
| CC(=O)C=O [MGx, methylglyoxal, reference compound] | functionally activated expression of the downstream NRF2 target genes NQO1 and HMOX1 |  |  |
| CC(C)CN[C@H]1CS(=O)(=O)C[C@@H]1S(=O)(=O)c1ccc(Cl)cc1 [CBR-470-1] |  | significantly inhibits PGK1-dependent activity and accumulation of NADH | synergistic effects on viability rather than additivity |
